Where two headings read alike, the source gives them in different places. One block for each compound: values may come before it.
Key:
[1] = target: T1, Human galectin-1 (Homo sapiens, UniProt P09382); assay: Competitive fluorescence polarization, galectin-1 (performed as described in ref 13); conditions: for Galectin-3/galectin-1: ratio of Kd values, Table 1 (monogalactosides)
[2] = tested on: JIMT-1
[3] = tested on: MCF-7
[4] = tested on: MCF-10A
[5] = tested on: MCF-7; assay: MTT cytotoxicity assay, MCF-7; conditions: MCF-7 tumor cell line, 72 h, 0.04 μM to 40 μM
[6] = tested on: JIMT-1; assay: MTT cytotoxicity assay, JIMT-1; conditions: JIMT-1 tumor cell line, 72 h, 0.04 μM to 40 μM
[7] = tested on: MCF-10A; assay: MTT cytotoxicity assay, MCF-10A; conditions: MCF-10A normal cell line, 72 h, 0.04 μM to 40 μM
[8] = target: T2, galectin-3 (Homo sapiens, UniProt P17931); assay: Competitive fluorescence polarization, galectin-3 (performed as described in ref 13)
T2 sequence (P17931 whole entry): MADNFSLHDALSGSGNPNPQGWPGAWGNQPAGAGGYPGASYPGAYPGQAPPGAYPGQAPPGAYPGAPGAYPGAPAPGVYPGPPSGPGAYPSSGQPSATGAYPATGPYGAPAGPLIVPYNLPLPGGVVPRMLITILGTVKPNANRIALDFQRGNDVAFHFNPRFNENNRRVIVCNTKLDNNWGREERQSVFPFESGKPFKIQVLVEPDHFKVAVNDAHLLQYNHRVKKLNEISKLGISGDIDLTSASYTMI

[9] = target: T1, Human galectin-1; assay: Competitive fluorescence polarization, galectin-1 with high-affinity fluorescent probe 25; format: binding; design: made in house; conditions: for Kd / Kd Galectin-1: galectin-1 50 nM, probe 25 1 nM, 100 nM BSA, rt, average ± SEM; for Galectin-3/galectin-1: ratio of Kd values, Table 2 (thiodigalactosides), galectin-1 selectivity over galectin-3
[10] = target: T2, galectin-3; assay: Competitive fluorescence polarization, galectin-3 with improved-affinity probe (as described in ref 15); format: binding; design: made in house; conditions: average ± SEM

T1 sequence (P09382 whole entry): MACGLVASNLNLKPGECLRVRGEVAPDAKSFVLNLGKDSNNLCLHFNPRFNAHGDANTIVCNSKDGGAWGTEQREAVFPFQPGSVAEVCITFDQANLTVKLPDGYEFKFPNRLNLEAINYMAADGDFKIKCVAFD

SMILES: Cc1ccc(S[C@@H]2O[C@H](CO)[C@H](O)[C@H](n3cc(-c4ccoc4)nn3)[C@H]2O)cc1 [compound 5, p-Methylphenyl 3-deoxy-3-[4-(furan-3-yl)-1H-1,2,3-triazol-1-yl]-1-thio-β-d-galactopyranoside]
Kd [1]: 120 ± 7 µM
Galectin-3/galectin-1 [1]: 2.1

SMILES: Cc1ccc(S[C@@H]2O[C@H](CO)[C@H](O)[C@H](n3cc(C4CCCC4)nn3)[C@H]2O)cc1 [compound 4, p-Methylphenyl 3-deoxy-3-(4-cyclopentyl-1H-1,2,3-triazol-1-yl)-1-thio-β-D-galactopyranoside]
Kd [1]: 370 ± 30 µM
Galectin-3/galectin-1 [1]: 2.6

SMILES: Cc1ccc(S[C@@H]2O[C@H](CO)[C@H](O)[C@H](n3cc(-c4c[nH]cn4)nn3)[C@H]2O)cc1 [compound 9, p-Methylphenyl 3-deoxy-3-[4-(1H-imidazol-4-yl)-1H-1,2,3-triazol-1-yl]-1-thio-β-D-galactopyranoside]
Kd [1]: 140 ± 7 µM
Galectin-3/galectin-1 [1]: 2.4

SMILES: Cc1ccc(S[C@@H]2O[C@H](CO)[C@H](O)[C@H](n3cc(-c4ccsc4)nn3)[C@H]2O)cc1 [compound 7, p-Methylphenyl 3-deoxy-3-[4-(thien-3-yl)-1H-1,2,3-triazol-1-yl]-1-thio-β-D-galactopyranoside]
Cytotoxicity [2]: non-cytotoxic
Cytotoxicity [3]: non-cytotoxic
Cytotoxicity [4]: non-cytotoxic
Kd [1]: 47 ± 2 µM

SMILES: O=C(O)CS[C@@H]1O[C@H](CO)[C@H](O)[C@H](n2cc(-c3ccsc3)nn2)[C@H]1O [compound 12, Carboxymethyl 3-deoxy-3-[4-(thien-3-yl)-1H-1,2,3-triazol-1-yl]-1-thio-β-D-galactopyranoside]
Cytotoxicity [5]: non-cytotoxic
Cytotoxicity [6]: non-cytotoxic
Cytotoxicity [7]: non-cytotoxic
Kd [1]: 58 ± 4 µM
Galectin-3/galectin-1 [1]: 3.4
Kd [8]: 200 ± 7 µM

SMILES: O=C(O)CS[C@@H]1O[C@H](CO)[C@H](O)[C@H](n2cc(-c3cscn3)nn2)[C@H]1O [compound 14, Carboxymethyl 3-deoxy-3-[4-(thiazol-4-yl)-1H-1,2,3-triazol-1-yl]-1-thio-β-D-galactopyranoside]
Cytotoxicity [5]: non-cytotoxic
Cytotoxicity [6]: non-cytotoxic
Cytotoxicity [7]: non-cytotoxic
Kd [1]: 62 ± 2 µM
Galectin-3/galectin-1 [1]: 8.7
Kd [8]: 540 ± 30 µM

SMILES: O=C(O)CS[C@@H]1O[C@H](CO)[C@H](O)[C@H](n2cc(-c3nccs3)nn2)[C@H]1O [compound 13, Carboxymethyl 3-deoxy-3-[4-(thiazol-2-yl)-1H-1,2,3-triazol-1-yl]-1-thio-β-D-galactopyranoside]
Cytotoxicity [5]: non-cytotoxic
Cytotoxicity [6]: non-cytotoxic
Cytotoxicity [7]: non-cytotoxic
Kd [1]: 43 ± 2 µM
Kd [8]: 280 ± 7 µM

SMILES: Cc1ccc(S[C@@H]2O[C@H](CO)[C@H](O)[C@H](n3cc(-c4ncc[nH]4)nn3)[C@H]2O)cc1 [compound 8, p-Methylphenyl 3-deoxy-3-[4-(1H-imidazol-2-yl)-1H-1,2,3-triazol-1-yl]-1-thio-β-D-galactopyranoside]
Kd [1]: 47 ± 3 µM
Galectin-3/galectin-1 [1]: 4.7

SMILES: Cc1ccc(S[C@@H]2O[C@H](CO)[C@H](O)[C@H](n3cc(-c4cccs4)nn3)[C@H]2O)cc1 [compound 6, p-Methylphenyl 3-deoxy-3-[4-(thien-2-yl)-1H-1,2,3-triazol-1-yl]-1-thio-β-D-galactopyranoside]
Cytotoxicity [2]: non-cytotoxic
Cytotoxicity [3]: non-cytotoxic
Cytotoxicity [4]: non-cytotoxic
Kd [1]: 61 ± 4 µM

SMILES: OC[C@H]1O[C@@H](S[C@@H]2O[C@H](CO)[C@H](O)[C@H](n3cc(-c4nccs4)nn3)[C@H]2O)[C@H](O)[C@@H](n2cc(-c3nccs3)nn2)[C@H]1O [compound 19, 1,1′-Sulfanediyl-bis-{3-deoxy-3-[4-(thiazol-2-yl)-1H-1,2,3-triazol-1-yl]-β-D-galactopyranoside}]
Kd [9]: 0.0084 ± 0.001 µM
Kd Galectin-1 [9]: single-digit
Cytotoxicity [5]: non-cytotoxic
Cytotoxicity [6]: non-cytotoxic
Cytotoxicity [7]: non-cytotoxic

SMILES: OC[C@H]1O[C@@H](S[C@@H]2O[C@H](CO)[C@H](O)[C@H](n3cc(-c4ccsc4)nn3)[C@H]2O)[C@H](O)[C@@H](n2cc(-c3ccsc3)nn2)[C@H]1O [compound 1]
Kd [9]: 0.0061 ± 0.001 µM
Kd Galectin-1 [9]: single-digit
Cytotoxicity [5]: non-cytotoxic
Cytotoxicity [6]: non-cytotoxic
Cytotoxicity [7]: non-cytotoxic

Results, then the compound that gave them:

Galectin-3/galectin-1 [1]: 0.2
SMILES: Cc1ccc(S[C@@H]2O[C@H](CO)[C@H](O)[C@H](O)[C@H]2O)cc1 [compound 16, reference compound]

Increased galectin-1 selectivity compared to corresponding monogalactoside [9]: 2 fold
Kd [9]: 0.012 ± 0.001 µM
Galectin-3/galectin-1 [9]: 5.1
Kd [10]: 0.061 ± 0.003 µM
SMILES: OC[C@H]1O[C@@H](S[C@@H]2O[C@H](CO)[C@H](O)[C@H](n3cc(-c4nccs4)nn3)[C@H]2O)[C@H](O)[C@@H](n2cc(-c3ccsc3)nn2)[C@H]1O [compound 22, 3,3′-Dideoxy-3-[4-(thiazol-2-yl)-1H-1,2,3-triazol-1-yl]-3′-[4-(thien-3-yl)-1H-1,2,3-triazol-1-yl]-1,1′-sulfanediyl-di-β-D-galactopyranoside]

Kd [9]: 0.013 ± 0.001 µM
Galectin-3/galectin-1 [9]: 0.14
Kd [10]: 0.0018 ± 0.0002 µM
SMILES: OC[C@H]1O[C@@H](S[C@@H]2O[C@H](CO)[C@H](O)[C@H](n3cc(-c4nccs4)nn3)[C@H]2O)[C@H](O)[C@@H](n2cc(-c3ccc(F)c(F)c3)nn2)[C@H]1O [compound 23, 3,3′-Dideoxy-3′-[4-(3,4-difluorophenyl)-1H-1,2,3-triazol-1-yl]-3-[4-(thiazol-2-yl)-1H-1,2,3-triazol-1-yl]-1,1′-sulfanediyl-di-β-D-galactopyranoside]

Increased galectin-1 selectivity compared to corresponding monogalactoside [9]: 2 fold
Lower affinity for galectin-1 than thiophene 1 [9]: 4 fold
Kd [9]: 0.025 ± 0.002 µM
Galectin-3/galectin-1 [9]: 7.2
Kd [10]: 0.18 ± 0.01 µM
SMILES: OC[C@H]1O[C@@H](S[C@@H]2O[C@H](CO)[C@H](O)[C@H](n3cc(-c4ncc[nH]4)nn3)[C@H]2O)[C@H](O)[C@@H](n2cc(-c3ncc[nH]3)nn2)[C@H]1O [compound 20, 1,1′-Sulfanediyl-bis-{3-deoxy-3-[4-(1H-imidazol-2-yl)-1H-1,2,3-triazol-1-yl]-β-D-galactopyranoside}]

Kd [1]: 430 ± 40 µM
Galectin-3/galectin-1 [1]: 4.2
Kd [8]: 1800 ± 100 µM
SMILES: O=C(O)CS[C@@H]1O[C@H](CO)[C@H](O)[C@H](O)[C@H]1O [compound 17, reference compound]

Kd [1]: 180 ± 9 µM
Galectin-3/galectin-1 [1]: 2.4
Kd [8]: 430 ± 20 µM
SMILES: O=C(O)CS[C@@H]1O[C@H](CO)[C@H](O)[C@H](n2cc(-c3cncs3)nn2)[C@H]1O [compound 15, Carboxymethyl 3-deoxy-3-[4-(thiazol-5-yl)-1H-1,2,3-triazol-1-yl]-1-thio-β-D-galactopyranoside]

Reference: article PMC9082524, “Aromatic heterocycle galectin-1 interactions for selective single-digit nM affinity ligands” (RSC Advances, 2018)
